Data taken from patent US7718651B2, “Inhibitors of FtsZ and uses thereof” (priority 2002, dated 2010).

tested on: M. tuberculosis H37Rv; assay: microbe, parasite or virus in culture; assay type: cell-based; details: not given

Structure (SMILES) | % Inh
CCOC(=O)Nc1cc2c(c(N)n1)N=C(c1ccccc1)[C@H](C)N2 [Compound A129] | 28%
CCOC(=O)Nc1cc(NCc2ccccc2)c(N)c(N)n1 [Compound A154] | 12%

same assay, conditions: M. tuberculosis H37Rv, screen concentration 12.5 g/ml [sic], Table 8

Structure (SMILES) | % Inh
CCOC(=O)Nc1cc(NC(C)CCCN(CC)CC)c2ncc(-c3cc(OC)c(OC)c(OC)c3)nc2n1.Cl.Cl (centres unmarked) [Compound A118] | 40%
CCOC(=O)Nc1cc(NC(c2ccccc2)c2ccccc2)c2nc(-c3ccccc3)c(-c3ccccc3)nc2n1 [Compound A119] | 36%
CCOC(=O)Nc1cc2c(nc(SCc3ccccc3)n2N)c(N)n1 [Compound A120] | 34%
CCOC(=O)Nc1cc(Nc2ccc(Cl)cc2)c2nc(-c3ccc(Cl)cc3)c(-c3ccc(Cl)cc3)nc2n1 [Compound A121] | 33%
CCOC(=O)Nc1cc(NCC(O)CN(C)c2ccc(Cl)cc2)c([N+](=O)[O-])c(N)n1 (centres unmarked) [Compound A122] | 31%
CCOC(=O)Nc1cc2ncc(C(=O)N(C)c3ccccc3)nc2c(N)n1 [Compound A123] | 31%
CCOC(=O)Nc1cc2oc(-c3cc(OC)c(OC)c(OC)c3)nc2c(N(CCc2ccccc2)Cc2ccccc2)n1 [Compound A124] | 31%
CCOC(=O)Nc1cc2[nH]c(-c3ccccc3)nc2c(N)n1 [Compound A125] | 30%
CCOC(=O)Nc1cc(NCCc2ccc(S(N)(=O)=O)cc2)c([N+](=O)[O-])c(N)n1 [Compound A126] | 30%
CCOC(=O)Nc1cc(NC/C(CN(C)c2ccccc2)=N/O)c([N+](=O)[O-])c(N)n1 [Compound A127] | 30%
CCOC(=O)Nc1cc(NC(c2ccccc2)c2ccccc2)c([N+](=O)[O-])c(NC/C(=N/O)c2ccc(Cl)cc2)n1 [Compound A130] | 28%
CCOC(=O)Nc1cc2c(c(N)n1)N=C(c1ccccc1OC)CO2 [Compound A131] | 25%
CCOC(=O)Nc1cc2c(nc(SCc3ccccc3)n2/N=C/c2ccccc2)c(N)n1 [Compound A132] | 24%
CCOC(=O)Nc1cc(NC(C)C(=O)COc2ccccc2)c([N+](=O)[O-])c(N)n1 (centres unmarked) [Compound A133] | 23%
CCOC(=O)Nc1cc(NC(c2ccccc2)c2ccccc2)c2nc(O)[nH]c2n1 [Compound A134] | 23%
CCOC(=O)Nc1cc(NCC(=O)CCc2ccccc2)c([N+](=O)[O-])c(N)n1 [Compound A135] | 22%
CCOC(=O)Nc1cc(NC/C(CCc2ccccc2)=N\O)c([N+](=O)[O-])c(N)n1 [Compound A136] | 21%
CCOC(=O)Nc1cc2oc(-c3ccc(Cl)cc3)nc2c(N(CCc2ccccc2)Cc2ccccc2)n1 [Compound A137] | 21%
CCOC(=O)Nc1cc2c(c(N)n1)N=C(CN(C)c1ccc(OC)cc1)CN2 [Compound A138] | 20%
CCOC(=O)Nc1cc(NC(C)C(=O)c2ccc3c(c2)OCO3)c([N+](=O)[O-])c(N)n1 (centres unmarked) [Compound A140] | 19%
CCOC(=O)Nc1cc(N)c2nc(-c3ccccc3)c(N)nc2n1 [Compound A141] | 19%
CCOC(=O)Nc1cc(N)c([N+](=O)[O-])c(NC(c2ccccc2)c2ccccc2)n1 [Compound A142] | 18%
CCOC(=O)Nc1cc(NCC(=O)CN(C)c2ccccc2)c([N+](=O)[O-])c(N)n1 [Compound A143] | 17%
CCOC(=O)Nc1cc(NC(C)/C(=N/O)c2ccc(NC)cc2)c([N+](=O)[O-])c(N)n1 (centres unmarked) [Compound A144] | 16%
CCOC(=O)Nc1cc2[nH]c(-c3ccc(C)cc3)nc2c(N(CCc2ccccc2)Cc2ccccc2)n1 [Compound A145] | 16%
CCOC(=O)Nc1cc(N)c2ncc(-c3cc(OC)c(OC)c(OC)c3)nc2n1 [Compound A147] | 15%
CCOC(=O)Nc1cc(N)c2nc(-c3ccccc3)cnc2n1 [Compound A148] | 14%

Structure (SMILES) | % Inh
CCOC(=O)Nc1cc(NC(C)/C(=N/O)c2ccc(O)cc2)c([N+](=O)[O-])c(N)n1 (centres unmarked) [Compound A149] | 14%
CCOC(=O)Nc1nc(NC(=O)OCC)c([N+](=O)[O-])c(NC(C)/C(=N\O)c2ccccc2)c1[N+](=O)[O-] (centres unmarked) [Compound A150] | 14%
CCOC(=O)Nc1cc2[nH]c(-c3ccc4c(c3)OCO4)nc2c(N(CCc2ccccc2)Cc2ccccc2)n1 [Compound A151] | 14%
CCOC(=O)Nc1cc2[nH]c(-c3ccc(O)cc3)nc2c(N)n1 [Compound A152] | 13%
CCOC(=O)Nc1cc(NC(C)C(O)COc2ccccc2)c([N+](=O)[O-])c(N)n1 (centres unmarked) [Compound A155] | 11%
CCOC(=O)Nc1cc(N)c(N)c(N)n1 [Compound A156] | 10%
CCOC(=O)Nc1cc2c(c(N)n1)N=C(c1ccc(OC)cc1)CS2 [Compound A158] | 10%
CCOC(=O)Nc1cc2ncc(-c3ccccc3)nc2c(NC(C)=O)n1 [Compound A159] | 10%
CCCCNC(=O)Oc1ccc(C2=Nc3c(cc(NC(=O)OCC)nc3N)N[C@H]2C)cc1 [Compound A160] | 10%
CCOC(=O)Nc1cc(NC(C)C(=O)c2ccccc2)c([N+](=O)[O-])c(N)n1 (centres unmarked) [Compound A161] | 9%
CCOC(=O)Nc1cc(N)c([N+](=O)[O-])c(N)n1 [Compound A162] | 8%
CCOC(=O)Nc1cc(NC(C)C(O)c2ccc3c(c2)OCO3)c([N+](=O)[O-])c(N)n1 (centres unmarked) [Compound A163] | 8%
CCOC(=O)Nc1cc2c(c(N)n1)N=C(c1ccc(O)cc1)[C@H](C)N2 [Compound A164] | 8%
COC(=O)Nc1cc(Cl)c([N+](=O)[O-])c(NC(=O)OC)n1 [Compound A165] | 8%
CCOC(=O)Nc1cc2c(c(N)n1)N=C(c1ccc(O)cc1)[C@@H](C)N2 [Compound A166] | 8%
CCOC(=O)Nc1cc2c(c(N)n1)N=C(c1cccc(N)c1)C(C)N2 (centres unmarked) [Compound A167] | 7%
CCOC(=O)Nc1cc(NCC(O)CN(C)c2ccccc2)c(N)c(NC(=O)OCC)n1 (centres unmarked) [Compound A169] | 7%
CCOC(=O)Nc1cc2c(c(N)n1)N=C(c1ccc(O)cc1)[C@H](C)N2 [Compound A170] | 7%
CCCCNC(=O)Oc1ccc(C2=Nc3c(cc(NC(=O)OCC)nc3N)N[C@@H]2C)cc1 [Compound A171] | 7%
CCOC(=O)Nc1cc(NC(C)/C(=N/O)c2ccccc2)c([N+](=O)[O-])c(N)n1 (centres unmarked) [Compound A172] | 5%
CCOC(=O)Nc1cc(N[C@H](C)[C@H](O)c2ccc(O)cc2)c([N+](=O)[O-])c(N)n1 [Compound A173] | 5%
CCCCC(Nc1cc(NC(=O)OCC)nc(N)c1N)C(C)O (centres unmarked) [Compound A174] | 5%
CCOC(=O)Nc1cc(NC(c2ccccc2)c2ccccc2)c([N+](=O)[O-])c(NC(=O)OCC)n1 [Compound A175] | 5%
COC(=O)Nc1cc(NC(C)/C(=N/O)c2ccccc2)c([N+](=O)[O-])c(N)n1 (centres unmarked) [Compound A176] | 4%
COC(=O)Nc1cc(NC(C)/C(=N/O)c2cccc([N+](=O)[O-])c2)c([N+](=O)[O-])c(N)n1 (centres unmarked) [Compound A177] | 4%
CCOC(=O)Nc1cc(N[C@@H](C)[C@@H](O)c2ccc(O)cc2)c([N+](=O)[O-])c(N)n1 [Compound A178] | 4%
CCOC(=O)Nc1cc(NC(C)C(O)c2ccc(O)cc2)c(N)c(N)n1 (centres unmarked) [Compound A179] | 4%
